Laboratory results from patent US20210267959A1, “METHODS OF TREATING RENAL DISEASE” (The Regents of the University of California, priority 2018, published 2021).

What was measured:
[1] = test system: rat model of chronic kidney disease (CKD) via 5/6 nephrectomy; assay: JZL184 in rat 5/6 nephrectomy model of chronic kidney disease; type: in vivo, male Sprague-Dawley rats; conditions: CKD rats, 4 weeks
Method: (§1) We used a well-known experimental tool, JZL184, which inhibits the enzyme responsible for breakdown of 2-AG, monoacylglycerol lipase (MGL), to determine the effect of increased tissue 2-AG levels on markers of renal function in animal models of chronic kidney disease (CKD). JZL184 was administered intraperitoneally in a well-established rat and mouse model of chronic kidney disease (CKD) (FIG. 8).
(§2) Therefore, we induced CKD in animals via 5/6 nephrectomy (surgical removal of one entire kidney in addition to 2/3 of the contralateral kidney which results in significant renal mass reduction and development of kidney failure over 6-10 weeks) in two separate studies (one set in rats and one set in mice).
In the rats, male Sprague-Dawley rats underwent 5/6 nephrectomy versus sham surgery and after two weeks were randomized to 4 groups: sham surgery, CKD treated with vehicle, CKD treated with 4 mg/kg JZL184 and CKD treated with 8 mg/kg JZL184 (n=6-8). During and at the end of the study, non-invasive blood pressure measurements were performed using tail-cuff plethysmography. Before sacrifice, a 24-hour urine sample was collected and evaluated for urine protein and creatinine to assess for degree of proteinuria (degree of proteinuria is a marker of glomerular and interstitial kidney damage in advanced CKD). After sacrifice, serum was obtained to assess for renal function. […] This was associated reduced systolic blood pressure and decreased rate of urine protein excretion.

[2] = test system: mouse model of chronic kidney disease (CKD) via 5/6 nephrectomy; assay: JZL184 in mouse 5/6 nephrectomy model of chronic kidney disease; type: in vivo, Male C57BL/6J mice; conditions: CKD mice, JZL184 4 mg/kg, 4 weeks; FIG. 12
Method: as §1, §2
We performed a similar experiment in mice. Male C57BL/6J mice underwent sham surgery versus 5/6 nephrectomy to induce CKD and two weeks after surgery were randomized to vehicle versus JZL184 therapy (4 mg/kg). Treated animals received JZL184 (4 mg/kg) for an additional 4 weeks (FIG. 11).

[3] = test system: monoacylglycerol lipase (MGL); conditions: cited from earlier work
[4] = JZL184 4 or 8 mg/kg intraperitoneal, FIG. 9

O=C(Oc1ccc([N+](=O)[O-])cc1)N1CCC(C(O)(c2ccc3c(c2)OCO3)c2ccc3c(c2)OCO3)CC1 [JZL184, 4-nitrophenyl-4-(dibenzo[d][1,3]dioxol-5-yl(hydroxy)methyl)piperidine-1-carboxylate]
cerebral cortex 2-AG concentration [1, 4]: significant increase
renal 2-AG concentration [1, 4]: significant increase
rate of urine protein excretion ([1]; JZL184 4 or 8 mg/kg, 24-hour urine, FIG. 10): decreased
renal function (serum) ([1]; JZL184 4 or 8 mg/kg, FIG. 10): signal toward improved renal function
systolic blood pressure ([1]; JZL184 4 or 8 mg/kg, tail-cuff plethysmography, FIG. 10): reduced
blood pressure [2]: significant improvement
serum BUN concentration [2]: reduced
urinary protein excretion [2]: decreased
overt symptoms of endocannabinoid activation in the central nervous system ([3]; 4 mg/kg in mice and 4-8 mg/kg in rats, have been shown (prior work)): without causing overt symptoms
brain and kidney levels of 2-AG ([3]; has been shown (prior work)): significantly increase
